# Experimental data published in patent EP2813216A1, “Stabilized amorphous ticagrelor” (Zentiva, a.s., priority 2013, dated 2014).
# Columns and labels:
# [1] = Differential scanning calorimetry (DSC), glass transition temperature; assay type: physicochemical; settings: neat substance (not a solid solution)
# Procedure: DSC curves were measured with a Pyris 1 (Perkin Elmer) device. The sample charge was 3-4 mg, heating rate 10 °C/min. Nitrogen was used as a carrier gas (20 ml/min).
# The products were characterized by XRPD and DSC analysis.
# In all cases the Tg values were higher for solid solution of 1:2 ratio than those for 1:1 ratio. Therefore, the 1:2 API to polymer ratio was able to form more physically stable solid solutions. It is known that the physical stability of the solid solution is increased with a higher glass transition temperature (Hancock and Zografi, 1997).
# [2] = low solubility, low permeability; cited from earlier work
SMILES,glass transition temperature (Tg) [1],Biopharmaceutical Classification System (BCS) class [2]
"CCCSc1nc(N[C@@H]2C[C@H]2c2ccc(F)c(F)c2)c2nnn([C@@H]3C[C@H](OCCO)[C@@H](O)[C@H]3O)c2n1 [Amorphous ticagrelor, (1S,2S,3R,5S)-3-[7-[(1R,2S)-2-(3,4-Difluorophenyl)cyclopropylamino]-5-(propylthio)-3H-[1,2,3]triazolo[4,5-d]pyrimidin-3-yl]-5-(2-hydroxyethoxy)cyclopentane-1,2-diol]",about 46 °C,–
"CCCSc1nc(N[C@@H]2C[C@H]2c2ccc(F)c(F)c2)c2nnn([C@@H]3C[C@H](OCCO)[C@@H](O)[C@H]3O)c2n1 [ticagrelor, (1S,2S,3R,5S)-3-[7-[(1R,2S)-2-(3,4-Difluorophenyl)cyclopropylamino]-5-(propylthio)-3H-[1,2,3]triazolo[4,5-d]pyrimidin-3-yl]-5-(2-hydroxyethoxy)cyclopentane-1,2-diol]",–,class IV
